Experimental data: US20230172961A1 (priority 2020, published 2023)

Legend:
Assay type in all cases: biochemical
[1] = target: SARS-CoV-2 RdRp (nsp12, nsp7 and nsp8) (Severe acute respiratory syndrome coronavirus 2, UniProt P0DTD1)
[2] = target: SARS-CoV RdRp (nsp12, nsp7 and nsp8) (Severe acute respiratory syndrome coronavirus, UniProt P0C6X7)
[3] = target: SARS-CoV-2 exonuclease complex (nsp14/nsp10) (Severe acute respiratory syndrome coronavirus 2, UniProt P0DTD1); test: Inhibition of SARS-CoV-2 exonuclease, MALDI-TOF MS
[4] = 150 µM inhibitor, 30 nM nsp14/nsp10, 37° C., 15 min
[5] = 10 µM inhibitor, 30 nM nsp14/nsp10, 37° C., 15 min
[6] = 30 µM inhibitor, 30 nM nsp14/nsp10, 37° C., 15 min
[7] = 100 µM inhibitor, 30 nM nsp14/nsp10, 37° C., 15 min
[8] = 300 µM inhibitor, 30 nM nsp14/nsp10, 37° C., 15 min

## CC(Cn1cnc2c(N)ncnc21)OCP(=O)(O)OP(=O)(O)OP(=O)(O)O (stereo in doubt) [TFV-DP, Tenofovir diphosphate]
[1]
  termination of the polymerase reaction: obligate terminator for the RdRp

## Cc1cn([C@H]2C[C@H](F)[C@@H](COP(=O)(O)OP(=O)(O)OP(=O)(O)O)O2)c(=O)[nH]c1=O [3′-F-dTTP, 3′-fluoro-3′-deoxythymidine triphosphate]
[2]
  termination of the polymerase reaction: permanent terminators
[1]
  incorporation efficiency: efficient substrates of the RdRp
  termination of the polymerase reaction: no further incorporation

## Nc1nc(=O)n([C@@H]2CS[C@H](COP(=O)(O)OP(=O)(O)OP(=O)(O)O)O2)cc1F [Ec-TP, Emtricitabine triphosphate]
[1]
  incorporation efficiency: relatively poor incorporation

## COc1cc2c(cc1Cc1cccc(Cl)c1F)c(=O)c(C(=O)O)cn2[C@H](CO)C(C)C [Elvitegravir]
[3]; concentration not stated for this compound (FIG. 59d)
  inhibition of exonuclease activity: able to inhibit the exonuclease

## Nc1ccn([C@@H]2CS[C@H](COP(=O)(O)OP(=O)(O)OP(=O)(O)O)O2)c(=O)n1 [Lam-TP, Lamivudine triphosphate]
[1]
  incorporation efficiency: relatively poor incorporation

## COC(=O)N[C@H](C(=O)N1CC2(CC2)C[C@H]1c1nc(-c2ccc3c(c2)C(F)(F)c2cc(-c4ccc5[nH]c([C@@H]6[C@H]7CC[C@H](C7)N6C(=O)[C@@H](NC(=O)OC)C(C)C)nc5c4)ccc2-3)c[nH]1)C(C)C [Ledipasvir]
[3]; [4]
  inhibition of exonuclease activity: able to inhibit the exonuclease

## Cc1cccc(C)c1OCC(=O)N[C@@H](Cc1ccccc1)[C@@H](O)C[C@H](Cc1ccccc1)NC(=O)[C@H](C(C)C)N1CCCNC1=O [Lopinavir]
[3]; [5]
  inhibition of exonuclease activity: small inhibition of the exonuclease activity
[3]; [6]
  inhibition of exonuclease activity: fragmentation peaks are further reduced
[3]; [7]
  inhibition of exonuclease activity: fragmentation peaks are further reduced
[3]; [8]
  inhibition of exonuclease activity: complete inhibition of exonuclease activity

## COC(=O)N[C@H](C(=O)N1CCC[C@H]1C(=O)Nc1ccc([C@@H]2CC[C@@H](c3ccc(NC(=O)[C@@H]4CCCN4C(=O)[C@@H](NC(=O)OC)C(C)C)cc3)N2c2ccc(C(C)(C)C)cc2)cc1)C(C)C [Ombitasvir]
[3]; 1 µM inhibitor, 30 nM nsp14/nsp10, 37° C., 15 min
  inhibition of exonuclease activity: shows inhibition of the exonuclease activity
[3]; [5]
  inhibition of exonuclease activity: significantly increased inhibition of exonuclease activity
[3]; [4]
  inhibition of exonuclease activity: able to inhibit the exonuclease

## COC(=O)N[C@H](C(=O)N1CCC[C@H]1c1nc2cc([C@H]3CC[C@H](c4cc5nc([C@@H]6CCCN6C(=O)[C@@H](NC(=O)OC)[C@@H](C)OC)[nH]c5cc4F)N3c3cc(F)c(N4CCC(c5ccc(F)cc5)CC4)c(F)c3)c(F)cc2[nH]1)[C@@H](C)OC [Pibrentasvir]
[3]; 0.1 µM inhibitor, 30 nM nsp14/nsp10, 37° C., 15 min
  inhibition of exonuclease activity: shows inhibition of the exonuclease activity
[3]; [5]
  inhibition of exonuclease activity: significantly increased inhibition of exonuclease activity
[3]; [4]
  inhibition of exonuclease activity: able to inhibit the exonuclease

## CC(C)c1nc(CN(C)C(=O)N[C@H](C(=O)N[C@@H](Cc2ccccc2)C[C@H](O)[C@H](Cc2ccccc2)NC(=O)OCc2cncs2)C(C)C)cs1 [Ritonavir]
[3]; [5]
  inhibition of exonuclease activity: shows inhibition of the exonuclease activity
[3]; [6]
  inhibition of exonuclease activity: fragmentation peaks are further reduced
[3]; [7]
  inhibition of exonuclease activity: fragmentation peaks are further reduced
[3]; [8]
  inhibition of exonuclease activity: complete inhibition of exonuclease activity

## O=c1ccn([C@@H]2O[C@H](COP(=O)(O)OP(=O)(O)OP(=O)(O)O)[C@@H](O)[C@H]2O)c(=O)[nH]1 [UTP]
[2]
  termination of the polymerase reaction: primer extension by 2 UTPs occurred

## O=c1ccn([C@H]2C[C@H](O)[C@@H](COP(=O)(O)OP(=O)(O)OP(=O)(O)O)O2)c(=O)[nH]1 [dUTP]
[1]; 250 µM each nucleotide, equimolar combinations (FIG. 36)
  relative incorporation efficiency in equimolar combinations: lower incorporation efficiency than the natural UTP

## Sofosbuvir
[1]; […], RDV-TP together with UTP
  extension of the RNA template-loop-primer: complete conversion
